Where two headings read alike, the source gives them in different places.

For data set [1], the system named is pigweed (Amaranthus retroflexus). Briefly: Test A preemergence, pigweed. The data set is classed as in vivo. As to conditions: Amaranthus retroflexus, pre-emergence, 240 h; for pest or weed control at 125 g/ha: 125 g ai/ha; for pest or weed control at 500 g/ha: 500 g ai/ha. In short, it runs like this:
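Postemergence ratings come from foliar sprays onto one- to two-leaf plants of 2 to 10 cm grown in loam/sand; preemergence ratings come from a directed spray onto the soil of newly seeded pots. Formulation was a surfactant-containing non-phytotoxic solvent blend.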

Where [2] appears, read: visual injury on 0 to 100 scale (0 no effect, 100 complete control), approximately 10 days, read-out: Pigweed plant response rating.
[3] abbreviates: 0 to 100 scale (0 no effect, 100 complete control), read-out: Plant response rating, Pigweed.
Where [4] appears, read: visual injury, 0 to 100 scale (0 no effect, 100 complete control), approx. 10 days, read-out: Plant response rating, Pigweed.

For `Cc1cc(Cl)c(NS(=O)(=O)C(F)(F)F)cc1C(=O)N1CCOCC1` [Compound 16, N-[2-Chloro-4-methyl-5-(4-morpholinylcarbonyl)phenyl]-1,1,1-trifluoromethanesulfonamide], the pest or weed control at 125 g/ha in data set [1] (setting [2]) came to 100%. Besides, the pest or weed control at 500 g/ha in data set [1] (setting [3]) turned out to be 100%.

As to `Cc1cc(Cl)c(NS(=O)(=O)C(F)(F)F)cc1C(=O)N1CCCCC1` [Compound 18, N-[2-Chloro-4-methyl-5-(1-piperidinylcarbonyl)phenyl]-1,1,1-trifluoromethanesulfonamide], the pest or weed control at 125 g/ha in data set [1] (setting [2]) turned out to be 100%. Moreover, in data set [1] (setting [3]), the pest or weed control at 500 g/ha came to 100%.

Regarding `Cc1cc(C)c(N(COC(=O)C(C)(C)C)S(=O)(=O)C(F)(F)F)cc1C1=NO[C@@H]2CCC[C@H]12` [Compound 100, [[2,4-Dimethyl-5-[(3aR,6aR)-3a,5,6,6a-tetrahydro-4H-cyclopent[d]isoxazol-3-yl]phenyl][(trifluoromethyl)sulfonyl]amino]methyl 2,2-dimethylpropanoate], the pest or weed control at 125 g/ha in data set [1] (setting [2]) was determined as 70%. For the same compound, in data set [1] (setting [3]), the pest or weed control at 500 g/ha turned out to be 80%.

For the compound `Cc1cc(C)c(C2=NO[C@@H]3CCC[C@H]23)cc1NS(=O)(=O)C(F)(F)F` [Compound 103, N-[2,4-Dimethyl-5-[(3aR,6aR)-3a,5,6,6a-tetrahydro-4H-cyclopent[d]isoxazol-3-yl]phenyl]-1,1,1-trifluoromethanesulfonamide], in data set [1] (setting [2]), the pest or weed control at 125 g/ha was found to be 100%. In addition, in data set [1] (setting [3]), the pest or weed control at 500 g/ha is 100%.

In general, melting point refers to the temperature of the solid-liquid transition. Consider `Cc1cc(C)c(C2=NOC3COCCC23)cc1NS(=O)(=O)C(F)(F)F` (centres unmarked) [Compound 121, N-[2,4-Dimethyl-5-(3a,4,7,7a-tetrahydro-5H-pyrano[4,3-d]isoxazol-3-yl)phenyl]-1,1,1-trifluoromethanesulfonamide], for which the melting point lay within 117 to 120 °C.

Turning to `Cc1c(NS(=O)(=O)C(F)(F)F)cc(C(=O)N(C)C)c(C)c1F` [Compound 128, 3-Fluoro-N,N,2,4-tetramethyl-5-[[(trifluoromethyl)sulfonyl]amino]benzamide], the melting point lay within 243 to 245 °C. Moreover, the pest or weed control at 125 g/ha in data set [1] (setting [2]) came to 100%. For the same compound, the pest or weed control at 500 g/ha in data set [1] (setting [3]) stood at 100%.

In the case of `Cc1cc(C)c(N(COC(=O)C(C)(C)C)S(=O)(=O)C(F)(F)F)cc1C1=NOC2(CCCC2)C1` [Compound 140, [[2,4-Dimethyl-5-(1-oxa-2-azaspiro[4.4]non-2-en-3-yl)phenyl][(trifluoromethyl)sulfonyl]amino]methyl 2,2-dimethylpropanoate], the pest or weed control at 125 g/ha in data set [1] (setting [2]) was 0%. Also, the pest or weed control at 500 g/ha in data set [1] (setting [3]) is 50%.

Regarding `Cc1c(NS(=O)(=O)C(F)(F)F)cc(C(=O)N2CCOCC2)c(C)c1F` [Compound 190, 1,1,1-Trifluoro-N-[3-fluoro-2,4-dimethyl-5-(4-morpholinylcarbonyl)phenyl]methanesulfonamide], the melting point lay within 236 to 240 °C. Further, the pest or weed control at 125 g/ha in data set [1] (setting [4]) came out at 100%. In addition, the pest or weed control at 500 g/ha in data set [1] (setting [3]) stood at 100%.

Regarding `Cc1cc(C)c(C2=NOC3(CCCCC3)C2)cc1NS(=O)(=O)C(F)(F)F` [Compound 197, N-[2,4-Dimethyl-5-(1-oxa-2-azaspiro[4.5]dec-2-en-3-yl)phenyl]-1,1,1-trifluoromethanesulfonamide], the pest or weed control at 125 g/ha in data set [1] (setting [4]) amounted to 80%. In addition, in data set [1] (setting [3]), the pest or weed control at 500 g/ha was found to be 100%.

For `Cc1cc(C)c(C2=NOC3(CCCC3)C2)cc1NS(=O)(=O)C(F)(F)F` [Compound 207, N-[2,4-Dimethyl-5-(1-oxa-2-azaspiro[4.4]non-2-en-3-yl)phenyl]-1,1,1-trifluoromethanesulfonamide], in data set [1] (setting [4]), the pest or weed control at 125 g/ha was 100%. The pest or weed control at 500 g/ha in data set [1] (setting [3]) came to 100%.

On to `Cc1cc(Cl)c(NS(=O)(=O)C(F)(F)F)cc1C(=O)N1CCC(F)(F)CC1` [Compound 229, N-[2-Chloro-5-[(4,4-difluoro-1-piperidinyl)carbonyl]-4-methylphenyl]-1,1,1-trifluoromethanesulfonamide], for which the pest or weed control at 125 g/ha in data set [1] (setting [4]) came to 100%. Besides, the pest or weed control at 500 g/ha in data set [1] (setting [2]) amounted to 100%.

`Cc1cc(C)c(C(=O)N2CCC(F)(F)CC2)cc1NS(=O)(=O)C(F)(F)F` [Compound 241, N-[5-[(4,4-Difluoro-1-piperidinyl)carbonyl]-2,4-dimethylphenyl]-1,1,1-trifluoromethanesulfonamide]: the pest or weed control at 125 g/ha in data set [1] (setting [4]) is 100%. In data set [1] (setting [2]), the pest or weed control at 500 g/ha was 100%.

With `Cc1c(NS(=O)(=O)C(F)(F)F)cc(C(=O)N2CCOCC2)c(C)c1C` [Compound 289, 1,1,1-Trifluoro-N-[2,3,4-trimethyl-5-(4-morpholinylcarbonyl)phenyl]methanesulfonamide], the melting point lay in the range of 247 to 250 °C.

For the origin of these results see patent publication US20230278972A1, “SUBSTITUTED HALOALKYL SULFONANILIDE HERBICIDES” (FMC Corporation, priority 2020, published 2023).
